“And” between values parts separate entries of the source, which are not always exact repeats. Equal values may be shown once. Read-outs that look alike come from different tables or passages of the source. Marks after values point to notes of the source that are not given here.

One assay relates to HIV-1 p24. Particulars: 3,000 psig, 22 °C, single-stage; for Δp24 [% Change]: versus t & T control.
In a further assay the test system is HIV-1Δtat-rev. The following applies: 3,000 psig, 22 °C, single-stage; for −Log10 Inactivation: versus time and temperature control; for Log10 TCID50/ml (CFI-treated): virus supernatant diluted 1:10 in RPMI.
Another assay deals with TGE. Type of assay: cell-based.
The subject of assay [1] is encephalomyocarditis (EMC) virus. Type of assay: cell-based.
Assay [2] concerns vesicular stomatitis virus (VSV). Type of assay: cell-based. The following applies: for −log10 Kill: 3,000 psig, 50 °C, single stage, matrix FBS; for −log10 reduction: 4,000 psig, <1 min.
Another assay has as its system Sindbis. Type of assay: cell-based.
A further assay deals with Poliovirus. In kind it is cell-based. Particulars: 3,000 psig, 50 °C, single stage, matrix FBS.
For another assay, the system named is Reovirus. In kind it is cell-based.
Another assay relates to Human Adenovirus, Type 5. In kind it is cell-based.
The test system of another assay is Hepatitis A (HAV) virus. In kind it is cell-based.
Assay [3] deals with parvovirus B19. Briefly: B19 infectivity assay of CFI-treated plasma samples. In kind it is cell-based, human parvovirus B19. The following applies: 206 bars; for Infectious Units per ml, CFI-Treated Samples: 4 ml/min.
For assay [4], the system named is Bovine Diarrhea Virus (BVD). In kind it is cell-based.
The test system of assay [5] is parvovirus B19. Briefly: B19 DNA titre of CFI-treated plasma samples. Also noted: species or system human parvovirus B19. Particulars: 206 bars, 4 ml/min. Here is the method: The conditions of different experiments performed for NIBSC, London, England with parvovirus B19-spiked in human plasma samples free of B19 antibodies are recorded in Table 16. […] Five or six samples were produced in each of the six experiments. A 2.5 ml aliquot of the feed was taken at the start of the treatment and stored at 4° C. during the run (named “before”) and a second 2.5 ml sample was placed at the same temperature as the SCoNCF system for the same duration as a control (named “time and temperature”). Once the system (isobaric chamber, connecting lines, valves and gauges) was pressurized with the supercritical fluid, the sample was pumped through the isobaric chamber at the rate of 4 ml/min. […] Finally, the system was depressurized to atmospheric pressure (1.01 bars).

Assay [6] relates to murine leukemia virus (MuLV). Briefly: SCoNCF CFI inactivation of murine leukemia virus in laminar flow injection unit. Type of assay: cell-based, murine-C retrovirus (MuLV). The following applies: 2,000 psig, 22 °C, <1 min.
Where [7] appears, read: Expt 01: 50 °C, 2 stages, human plasma.
The mark [8] stands for this setting: Expt 02/04: 25 °C, 1 stage, volumetric average of two samples.

As to `CCC` [C3H8, Propane], in the assay on HIV-1 p24, the “p24 [CFI-treated]” value stood at 175 ng/mL and the “Δp24 [% Change]” value is given as “+20%”. In addition, in the assay on HIV-1Δtat-rev, the “−Log10 Inactivation” value is recorded as 0.9 and the “Log10 TCID50/ml (CFI-treated)” value worked out at 4.1.

Turning to `O=C=O` [CO2, carbon dioxide], in the assay on HIV-1 p24, the “p24 [CFI-treated]” value is 15 ng/mL and the “Δp24 [% Change]” value was “+7%”. Besides, in the assay on HIV-1Δtat-rev, the “−Log10 Inactivation” value is given as greater than 3.7 and the “Log10 TCID50/ml (CFI-treated)” value was “undetected”.

Consider `FC(F)Cl` [FREON-22, hydrodifluorochloromethane], for which the “−log10 Kill” value in the assay on TGE is >2.5 and >2.6; in assay [2] it was >6.5 and >6.6; in assay [2] (listed as Freon-22) it was > 6.6 and > 6.5; with Sindbis, greater than 6.5; with Poliovirus, 4.1 and 4.2; with Poliovirus (listed as Freon-22), 4.1 and 4.2. Also, the “−log10 Kill” value in the assay with Reovirus was 0.9 and 1.0; with Human Adenovirus, Type 5 it was >5.3 and >5.1; with Hepatitis A (HAV) virus it was 1.3 and 1.0; in assay [4], 2.3. In addition, the “EMC inactivated on the average” value in [1] is recorded as roughly 6 logs. Also, in [1], the “EMC inactivation on the average” value stood at 5.7 logs. Besides, in assay [1], the “increase of inactivation for every 10 °C increase in temperature” value was roughly 1 log. Further, in the assay with parvovirus B19 [3] (50 °C, two-stage laminar flow CFI unit), the “change in infectivity titer compared with the untreated sample” value is given as roughly 2 log10. Further, the “Infectious Units per ml, CFI-Treated Samples” value in the assay with parvovirus B19 [3] (setting [7]) is 5 × 10^3 Infectious Units per ml; in the assay on parvovirus B19 [3] (setting [8]), 2 × 10^5* Infectious Units per ml. In the assay on HIV-1 p24, the “p24 [CFI-treated]” value was 112 ng/mL. For the same compound, in the assay on HIV-1 p24, the “Δp24 [% Change]” value was −7%. Further, in the assay on HIV-1Δtat-rev, the “−Log10 Inactivation” value is given as greater than 5.1. For the same compound, the “Log10 TCID50/ml (CFI-treated)” value in the assay on HIV-1Δtat-rev is given as “undetected”. Besides, the “B19 DNA Titre (IU/ml), CFI-Treated Samples” value in the assay on parvovirus B19 [5] (setting [7]) is reported as 5 × 10^10 IU/ml; in the assay on parvovirus B19 [5] (setting [8]), 2 × 10^11* IU/ml.

For `FC(F)F` [Fr-23, trifluoromethane], the “EMC inactivated on the average” value in [1] was roughly 3 logs. In addition, the “Infectious Units per ml, CFI-Treated Samples” value with parvovirus B19 [3] (setting [8]) is 1.7 × 10^6* Infectious Units per ml. In addition, in the assay on HIV-1 p24, the “p24 [CFI-treated]” value worked out at 20 ng/mL and the “Δp24 [% Change]” value is “+43%”. Besides, in the assay on HIV-1Δtat-rev, the “−Log10 Inactivation” value is recorded as greater than 3.7 and the “Log10 TCID50/ml (CFI-treated)” value was “undetected”. For the same compound, the “B19 DNA Titre (IU/ml), CFI-Treated Samples” value with parvovirus B19 [5] (setting [8]) is 2.5 × 10^10* IU/ml.

Take `FC(Cl)C(F)(F)F` (stereo not drawn) [Fr-124]: in assay [1], the “−log10 Kill” value is 0.5 and 0.4.

For `N#N` [N2], in the assay with HIV-1 p24, the “p24 [CFI-treated]” value is 143 ng/mL and the “Δp24 [% Change]” value is “+34%”. Moreover, in the assay with HIV-1Δtat-rev, the “−Log10 Inactivation” value is greater than 5.1 and the “Log10 TCID50/ml (CFI-treated)” value is given as “undetected”.

With `[N-]=[N+]=O` [NITROUS OXIDE, nitrous oxide], the “−log10 reduction” value is 2.5 in [2] (40 °C, 1 stage); greater than 5.5 in [2] (40 °C, 2 stages); 2.3 and 2.0 in assay [6] (1 stage); “about 2” in assay [6] (1 stage, listed as nitrous oxide); greater than 5.5 in [6] (2 stages); “greater than 5.5” in [6] (2 stages, listed as nitrous oxide). In addition, the inactivation in assay [2] (5,000 psig, 22 °C) is reported as roughly 2 logs. In assay [2] (5,000 psig, 40 °C), this compound displayed an average inactivation of 4 logs. The “p24 [CFI-treated]” value with HIV-1 p24 was 70 ng/mL. Besides, in the assay with HIV-1 p24, the “Δp24 [% Change]” value is “+25%”. The “−Log10 Inactivation” value in the assay with HIV-1Δtat-rev is listed as greater than 2.8. Besides, in the assay with HIV-1Δtat-rev, the “Log10 TCID50/ml (CFI-treated)” value is recorded as “undetected”.

For the origin of these results see patent publication US20060269928A1, “Compositions, methods and apparatus for supercritical fluid virus inactivation” (Aphios Corporation, priority 2005, published 2006).
